Source: patent US20260176300A1, “N-ARYLPYRAZOLE NOD2 AGONISTS AS PROMOTERS OF IMMUNE CHECKPOINT INHIBITOR THERAPY” (THE SCRIPPS RESEARCH INSTITUTE, priority 2022, published 2026)

Target: T1, NOD2 (Homo sapiens, UniProt Q9HC29)
T1 construct: host or cells: HEK-293T-derived HEK-Blue NF-kB/SEAP reporter cells
Assay: NOD2-HEK-Blue NF-κB reporter cell activation assay (NOD2-expressing HEK-293T cells)
Assay type: cell-based
Conditions: for NOD2 activation, result in words in the pEC50 column: Table 1; for EC50: calculated, three-parameter dose-response nonlinear regression, read-out: pEC50 (μM), dose-dependent activation of NOD2-expressing HEK-293T cells (converted); for Activation of NOD2-expressing HEK-293T cells, colorimetric assay: 10 µM, 16 h (FIG. 1E); for Potency in structure-activity comparison: relative to TT007, FIG. 2B, 2D, 2F, 6E; for Activity after N-methylation on Val: TT018 vs. TT019, TT010 vs. TT020, TT011 vs. TT021, FIG. 2C
Text: FIG. 1(A-F). Virtual screening for small molecule NOD2 agonists. A, Docked structure of muramyl dipeptide (MDP) in the leucine-rich repeat (LRR) domain of rabbit NOD2 (pdb 5IRM). […] B, Results of virtual docking approach with reported chemical structures related to MDP. C, Workflow of virtual screening in which a library was generated using carboxylic acids appended to the L-Val-D-Glu dipeptide and then docked to the NOD2 LRR domain. D, Desmuramyl MDP (dMDP) structures resulting from the virtual screen that were synthesized for further screening. Chemicals shown as a pure enantiomer were synthesized as a racemic mixture. E, Activation of NOD2-expressing HEK-293T cells treated for 16 h with 10 µM of the indicated compound using a colorimetric assay. F, Dose-dependent activation of NOD2-expressing HEK-293T cells using the indicated compounds. Numbers in parentheses represent calculated negative log of the half maximal effective concentration (pEC50) values. NOD activation assays were analyzed using a one-way ANOVA with Dunnett's multiple comparisons test compared to the DMSO control. pEC50 values were derived by a three-parameter dose-response nonlinear regression. ****P<0.0001.
FIG. 2(A-G). Structure-activity relationship studies of 3,5-dimethyl-N-arylpyrazole NOD2 agonists. A, Structures of 3,5-dimethyl-N-arylpyrazole structures synthesized for SAR studies. B-F, Dose-dependent activation of NOD2-expressing HEK-293T cells using the indicated compounds grouped by similar structural perturbations. Numbers in parentheses represent calculated pEC50 values. G, Graph of calculated pEC50 values vs. calculated partition coefficient (clogP). Dotted lines show equivalent lipophilic ligand efficiency (LLE) values. Red arrow indicates optimization of the TT007 scaffold to TT030. pEC50 values were derived by a three-parameter dose-response nonlinear regression.
Cell culture. The following cell lines were used and sourced as follows: HEK-Blue NOD2 (InvivoGen, hkb-hnod2), HEK-Blue NOD1 (InvivoGen, hkb-nod1), HEK-Blue Null2 (hkb-null2), and B16-F10 (ATCC CRL-6475). All cell lines were cultured at 37° C. in 5% CO2 in DMEM (ThermoFisher, 11995065) supplemented with 10% fetal bovine serum (FBS), 100 U mL-1 penicillin, and 100 μg mL-1 streptomycin. Cells were maintained at no greater than 70% confluency and subcultured using TrypLE Express. Cell lines were routinely cultured without antibiotics to ensure no bacterial infection and tested for mycoplasma using a Universal Mycoplasma Detection Kit (ATCC 30-1012K). Primary human peripheral mononuclear blood cells (PBMCs) were cultured at 37° C. in 5% CO2 in RPMI 1640 (ThermoFisher, 61870143) supplemented with 10% FBS. All experimental work using human samples was reviewed and approved by the Scripps Research Institutional Review Board (Protocol IRB-21-7816NOD2).
Reporter cell line activation assay. Approximately 24 h before the assay, culture medium for each of the HEK-Blue reporter cell lines was replaced with a 1:1 mixture of DMEM supplemented with 10% FBS and OptiMEM. On the day of the assay, single cell suspensions (150,000 cells/mL) were produced in HEK-Blue detection medium (InvivoGen, hb-det2). Cells were aliquoted at 200 μL per well of a 96-well plate containing 0.2 μL of a 1000× stock of each test compound in DMSO. Cells were then incubated at 37° C. in 5% CO2 for 8-10 h. To measure activity, wells were then gently pipetted up and down to mix the conditioned medium, and absorbance from the colorimetric product of the secreted alkaline phosphatase was measured at 630 nm. In some assays, cells were stimulated for 16 h with compounds as described above in complete DMEM. Then, 20 μL of the conditioned medium was mixed with 180 μL QUANTI-Blue solution (InvivoGen, rep-qbs) and incubated for 2-4 h at 37° C. Activity was then measured by absorbance as described above.

T1 sequence (Q9HC29 whole entry): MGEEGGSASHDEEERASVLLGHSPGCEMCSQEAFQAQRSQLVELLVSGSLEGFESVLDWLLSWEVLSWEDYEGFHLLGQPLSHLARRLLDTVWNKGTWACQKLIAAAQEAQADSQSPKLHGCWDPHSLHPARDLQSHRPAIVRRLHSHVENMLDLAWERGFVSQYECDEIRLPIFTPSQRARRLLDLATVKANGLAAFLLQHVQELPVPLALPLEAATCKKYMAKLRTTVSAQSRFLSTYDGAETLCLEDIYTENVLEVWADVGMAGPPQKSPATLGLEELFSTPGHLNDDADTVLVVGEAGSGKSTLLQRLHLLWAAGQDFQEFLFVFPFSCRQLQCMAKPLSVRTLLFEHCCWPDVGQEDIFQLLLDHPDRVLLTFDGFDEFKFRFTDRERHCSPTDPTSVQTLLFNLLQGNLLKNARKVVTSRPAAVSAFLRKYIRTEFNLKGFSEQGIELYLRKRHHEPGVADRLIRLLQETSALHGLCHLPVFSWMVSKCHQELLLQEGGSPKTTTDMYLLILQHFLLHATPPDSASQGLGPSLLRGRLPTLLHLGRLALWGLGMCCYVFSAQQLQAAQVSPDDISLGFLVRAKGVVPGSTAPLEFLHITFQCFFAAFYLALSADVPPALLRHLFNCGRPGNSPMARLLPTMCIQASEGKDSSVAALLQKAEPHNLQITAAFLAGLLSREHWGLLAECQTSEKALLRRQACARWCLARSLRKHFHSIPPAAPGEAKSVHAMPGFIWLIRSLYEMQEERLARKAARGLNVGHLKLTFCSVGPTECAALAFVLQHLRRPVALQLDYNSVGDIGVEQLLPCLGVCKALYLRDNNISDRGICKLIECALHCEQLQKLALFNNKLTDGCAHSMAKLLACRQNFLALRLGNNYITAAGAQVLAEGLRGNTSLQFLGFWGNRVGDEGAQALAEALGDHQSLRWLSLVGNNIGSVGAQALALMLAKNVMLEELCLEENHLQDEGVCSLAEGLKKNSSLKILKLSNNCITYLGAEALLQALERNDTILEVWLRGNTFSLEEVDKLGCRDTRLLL

SMILES: CCOC(=O)CC[C@@H](NC(=O)[C@@H](NC(=O)[C@@H]1C[C@H]1c1ccc(Cl)c(Cl)c1)C(C)C)C(=O)OCC (racemic) [TT004, Diethyl (rac-(1R,2R)-2-(3,4-dichlorophenyl)cyclopropane-1-carbonyl)-L-valyl-D-glutamate]
- NOD2 activation, result in words in the pEC50 column: Active

SMILES: CCOC(=O)CC[C@@H](NC(=O)[C@@H](NC(=O)C(C)Cc1ccc(F)c(F)c1)C(C)C)C(=O)OCC (mixture of isomers) [TT005, Diethyl (3-(3,4-difluorophenyl)-2-methylpropanoyl)-L-valyl-D-glutamate]
- EC50: 0.631 µM

SMILES: CCOC(=O)CC[C@@H](NC(=O)[C@@H](NC(=O)CNC(=O)/C=C/c1ccccc1)C(C)C)C(=O)OCC [CinGVE, Diethyl cinnamoylglycyl-L-valyl-D-glutamate, reference compound]
- EC50: 1.26 µM

SMILES: CCOC(=O)CC[C@@H](NC(=O)[C@@H](NC(=O)CCCc1ccccc1)C(C)C)C(=O)OCC [TT001, Diethyl (4-phenylbutanoyl)-L-valyl-D-glutamate]
- NOD2 activation, result in words in the pEC50 column: Active

SMILES: CCOC(=O)CC[C@@H](NC(=O)[C@@H](NC(=O)/C=C/c1ccc(F)cc1)C(C)C)C(=O)OCC [TT002, Diethyl ((E)-3-(4-fluorophenyl)acryloyl)-L-valyl-D-glutamate]
- NOD2 activation, result in words in the pEC50 column: Active

SMILES: CCOC(=O)CC[C@@H](NC(=O)[C@@H](NC(=O)C1(Cc2ccc(F)cc2)CCCC1)C(C)C)C(=O)OCC [TT003, Diethyl (1-(4-fluorobenzyl)cyclopentane-1-carbonyl)-L-valyl-D-glutamate]
- EC50: 0.0501 µM

SMILES: CCOC(=O)CC[C@@H](NC(=O)[C@@H](NC(=O)c1cn(-c2ccccc2)nc1-c1cccc(C)c1)C(C)C)C(=O)OCC [TT008, Diethyl (1-phenyl-3-(m-tolyl)-1H-pyrazole-4-carbonyl)-L-valyl-D-glutamate]
- Activation of NOD2-expressing HEK-293T cells, colorimetric assay: inactive

SMILES: CCOC(=O)CC[C@@H](NC(=O)[C@@H](NC(=O)c1cn(-c2ccc(F)cc2)nc1-c1cccc(C)c1)C(C)C)C(=O)OCC [TT009, Diethyl (1-(4-fluorophenyl)-3-(m-tolyl)-1H-pyrazole-4-carbonyl)-L-valyl-D-glutamate]
- Activation of NOD2-expressing HEK-293T cells, colorimetric assay: inactive
- Potency in structure-activity comparison: did not compensate the lack of the other substituent

SMILES: CCOC(=O)CC[C@@H](NC(=O)[C@@H](NC(=O)c1cnn(-c2ccc(F)cc2)c1C)C(C)C)C(=O)OCC [TT010, Diethyl (1-(4-fluorophenyl)-5-methyl-1H-pyrazole-4-carbonyl)-L-valyl-D-glutamate]
- EC50: 39.8 µM
- Potency in structure-activity comparison: reduced potency by up to two orders of magnitude

SMILES: CCOC(=O)CC[C@@H](NC(=O)[C@@H](NC(=O)c1cn(-c2ccc(F)cc2)nc1C)C(C)C)C(=O)OCC [TT011, Diethyl (1-(4-fluorophenyl)-3-methyl-1H-pyrazole-4-carbonyl)-L-valyl-D-glutamate]
- EC50: 10 µM
- Potency in structure-activity comparison: reduced potency by up to two orders of magnitude

SMILES: CCOC(=O)CC[C@@H](NC(=O)[C@@H](NC(=O)c1cnn(-c2ccc(F)cc2)c1C(C)C)C(C)C)C(=O)OCC [TT012, Diethyl (1-(4-fluorophenyl)-5-isopropyl-1H-pyrazole-4-carbonyl)-L-valyl-D-glutamate]
- EC50: 31.6 µM
- Potency in structure-activity comparison: did not compensate the lack of the other substituent

SMILES: CCOC(=O)CC[C@@H](NC(=O)[C@@H](NC(=O)c1cn(-c2ccc(C)cc2)nc1C)C(C)C)C(=O)OCC [TT013, Diethyl (3-methyl-1-(p-tolyl)-1H-pyrazole-4-carbonyl)-L-valyl-D-glutamate]
- EC50: 10 µM

SMILES: CCOC(=O)CC[C@@H](NC(=O)[C@@H](NC(=O)c1cnn(-c2ccccc2O)c1C)C(C)C)C(=O)OCC [TT014, Diethyl (1-(2-hydroxyphenyl)-5-methyl-1H-pyrazole-4-carbonyl)-L-valyl-D-glutamate]
- EC50: 31.6 µM

SMILES: CCOC(=O)CC[C@@H](NC(=O)[C@@H](NC(=O)c1cnn(-c2ccncc2)c1C)C(C)C)C(=O)OCC [TT016, Diethyl (5-methyl-1-(pyridin-4-yl)-1H-pyrazole-4-carbonyl)-L-valyl-D-glutamate]
- EC50: 79.4 µM

SMILES: CCOC(=O)CC[C@@H](NC(=O)[C@@H](NC(=O)c1c(C)nn(-c2ccccc2)c1C)C(C)C)C(=O)OCC [TT018, Diethyl (3,5-dimethyl-1-phenyl-1H-pyrazole-4-carbonyl)-L-valyl-D-glutamate]
- EC50: 2.51 µM
- Potency in structure-activity comparison: did not yield compounds with appreciable differences in potency

SMILES: CCOC(=O)CC[C@@H](NC(=O)[C@H](C(C)C)N(C)C(=O)c1c(C)nn(-c2ccccc2)c1C)C(=O)OCC [TT019, Diethyl N-(3,5-dimethyl-1-phenyl-1H-pyrazole-4-carbonyl)-N-methyl-L-valyl-D-glutamate]
- Activity after N-methylation on Val: abolished the activity

SMILES: CCOC(=O)CC[C@@H](NC(=O)[C@H](C(C)C)N(C)C(=O)c1cnn(-c2ccc(F)cc2)c1C)C(=O)OCC [TT020, Diethyl N-(1-(4-fluorophenyl)-5-methyl-1H-pyrazole-4-carbonyl)-N-methyl-L-valyl-D-glutamate]
- Activity after N-methylation on Val: abolished the activity

SMILES: CCOC(=O)CC[C@@H](NC(=O)[C@H](C(C)C)N(C)C(=O)c1cn(-c2ccc(F)cc2)nc1C)C(=O)OCC [TT021, Diethyl N-(1-(4-fluorophenyl)-3-methyl-1H-pyrazole-4-carbonyl)-N-methyl-L-valyl-D-glutamate]
- Activity after N-methylation on Val: abolished the activity

SMILES: CCOC(=O)CC[C@@H](NC(=O)[C@@H](NC(=O)c1c(C)nn(-c2ccc(Cl)c(Cl)c2)c1C)C(C)C)C(=O)OCC [TT022, Diethyl (1-(3,4-dichlorophenyl)-3,5-dimethyl-1H-pyrazole-4-carbonyl)-L-valyl-D-glutamate]
- EC50: 1.26 µM
- Potency in structure-activity comparison: slight increase

SMILES: CCOC(=O)CC[C@@H](NC(=O)[C@@H](NC(=O)c1c(C)nn(-c2ccc(OC)cc2)c1C)C(C)C)C(=O)OCC [TT023, Diethyl (1-(4-methoxyphenyl)-3,5-dimethyl-1H-pyrazole-4-carbonyl)-L-valyl-D-glutamate]
- EC50: 2 µM
- Potency in structure-activity comparison: did not yield compounds with appreciable differences in potency

SMILES: CCOC(=O)CC[C@@H](NC(=O)[C@@H](NC(=O)c1c(C)nn(-c2ccc(Cl)cc2)c1C)C(C)C)C(=O)OCC [TT024, Diethyl (1-(4-chlorophenyl)-3,5-dimethyl-1H-pyrazole-4-carbonyl)-L-valyl-D-glutamate]
- EC50: 1 µM
- Potency in structure-activity comparison: did not yield compounds with appreciable differences in potency

SMILES: CCOC(=O)CC[C@@H](NC(=O)[C@@H](NC(=O)c1c(C)nn(-c2ccc3cc[nH]c3c2)c1C)C(C)C)C(=O)OCC [TT025, Diethyl (1-(1H-indol-6-yl)-3,5-dimethyl-1H-pyrazole-4-carbonyl)-L-valyl-D-glutamate]
- EC50: 0.158 µM
